Pest or weed control, plant injury and Corn plant response rating (crop injury, 0 = no effect, 100 = complete kill) data for two compounds are collected here from patent US20260262643A1, “HERBICIDAL BENZOXAZINES” (FMC CORPORATION, priority 2022, published 2026).

Read-outs that look alike come from different tables or passages of the source.

The subject of test [1] is foxtail, giant. In words: Test A preemergence. The format is in vivo, Setaria faberi. The conditions noted are these: Setaria faberi, pre-emergence, 240 h, read-out: Plant response rating, Foxtail, Giant; for pest or weed control at 125 g/ha: 125 g ai/ha; for pest or weed control at 500 g/ha: 500 g ai/ha. An outline of the steps: (§1)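 Visual injury ratings on a 0–100 scale (100 = complete control) versus untreated controls, taken 10 days after treatment in greenhouse. Preemergence: directed soil spray onto seeded loam/sand. Postemergence: foliar application at one- to two-leaf stage, plants 2–10 cm. Formulation: non-phytotoxic solvent plus surfactant.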

The test system of test [2] is oat, wild. Description: Test A preemergence. It is filed as in vivo, Avena fatua. The note with it: Avena fatua, pre-emergence, 240 h, read-out: Plant response rating, Oat, Wild; for pest or weed control at 125 g/ha: 125 g ai/ha; for pest or weed control at 500 g/ha: 500 g ai/ha. A digest of the protocol: as §1
Test [3] has as its system pigweed, palmer. Description: Test A preemergence. The format is in vivo, Amaranthus palmeri. The conditions noted are these: Amaranthus palmeri, pre-emergence, 240 h, read-out: Plant response rating, Pigweed, Palmer; for pest or weed control at 125 g/ha: 125 g ai/ha; for pest or weed control at 500 g/ha: 500 g ai/ha. A digest of the protocol:
as §1

Test [4] concerns ryegrass, Italian. In words: Test A preemergence. The format is in vivo, Lolium multiflorum. The note with it: Lolium multiflorum, pre-emergence, 240 h, read-out: Plant response rating, Ryegrass, Italian; for pest or weed control at 125 g/ha: 125 g ai/ha; for pest or weed control at 500 g/ha: 500 g ai/ha. An outline of the steps: as §1
Test [5] deals with corn. In words: Test A postemergence. The format is in vivo, Zea mays. The conditions noted are these: Zea mays, post-emergence, 240 h, postemergence, 10 days, 0 to 100 scale (0 no effect, 100 complete control); for plant injury at 125 g/ha: 125 g ai/ha, read-out: Corn plant response rating; for Corn plant response rating (crop injury, 0 = no effect, 100 = complete kill) at 500 g/ha: 500 g ai/ha, visual injury. A digest of the protocol:
as §1

Test [6] concerns oat, wild. In words: Test A postemergence. The format is in vivo, Avena fatua. The conditions noted are these: Avena fatua, post-emergence, 240 h, postemergence, 10 days, 0 to 100 scale (0 no effect, 100 complete control); for pest or weed control at 125 g/ha: 125 g ai/ha, read-out: Oat, Wild plant response rating; for pest or weed control at 500 g/ha: 500 g ai/ha, visual injury, read-out: Plant response rating, Oat, Wild. A digest of the protocol:
as §1

Test [7] concerns pigweed, palmer. In words: Test A postemergence. The format is in vivo, Amaranthus palmeri. The conditions noted are these: Amaranthus palmeri, post-emergence, 240 h, postemergence, 10 days, 0 to 100 scale (0 no effect, 100 complete control); for pest or weed control at 125 g/ha: 125 g ai/ha, read-out: Pigweed, Palmer plant response rating; for pest or weed control at 500 g/ha: 500 g ai/ha, visual injury, read-out: Plant response rating, Pigweed, Palmer. A digest of the protocol: as §1

Test [8] concerns ryegrass, Italian. Description: Test A postemergence. The format is in vivo, Lolium multiflorum. The note with it: Lolium multiflorum, post-emergence, 240 h, postemergence, 10 days, 0 to 100 scale (0 no effect, 100 complete control); for pest or weed control at 125 g/ha: 125 g ai/ha, read-out: Ryegrass, Italian plant response rating; for pest or weed control at 500 g/ha: 500 g ai/ha, visual injury, read-out: Plant response rating, Ryegrass, Italian. A digest of the protocol: as §1

The test system of test [9] is soybean. In words: Test A postemergence. The format is in vivo, Glycine max. The conditions noted are these: Glycine max, post-emergence, 240 h, postemergence, 10 days, 0 to 100 scale (0 no effect, 100 complete control); for plant injury at 125 g/ha: 125 g ai/ha, read-out: Soybean plant response rating; for plant injury at 500 g/ha: 500 g ai/ha, visual injury, read-out: Plant response rating, Soybean. A digest of the protocol:
as §1

For test [10], the system named is galium. Description: Test A postemergence. The conditions noted are these: Galium, post-emergence, 240 h, postemergence, 10 days, 0 to 100 scale (0 no effect, 100 complete control); for pest or weed control at 125 g/ha: 125 g ai/ha, read-out: Galium plant response rating; for pest or weed control at 500 g/ha: 500 g ai/ha, visual injury, read-out: Plant response rating, Galium. The format is in vivo, Galium aparine. An outline of the steps: as §1

Test [11] has as its system horseweed. In words: Test A postemergence. It is filed as in vivo, Erigeron canadensis. The note with it: Erigeron canadensis, post-emergence, 240 h, postemergence, 10 days, 0 to 100 scale (0 no effect, 100 complete control); for pest or weed control at 125 g/ha: 125 g ai/ha, read-out: Horseweed plant response rating; for pest or weed control at 500 g/ha: 500 g ai/ha, visual injury, read-out: Plant response rating, Horseweed. A digest of the protocol: as §1

Test [12] has as its system barnyardgrass. Description: Test B flooded paddy test. It is filed as in vivo, Echinochloa crus-galli. The conditions noted are these: Echinochloa crus-galli, 312 h, 250 g ai/ha, Flood, 13 days, 0 to 100 scale (0 no effect, 100 complete control); read-out: Plant response rating, Barnyardgrass. A digest of the protocol:
(§2)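 Each species was raised to the 2-leaf stage. At treatment, each pot received floodwater 3 cm deep, with the chemical delivered into the water. Greenhouse holding followed for 13 days, then percent control was estimated visually versus untreated pots.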

Test [13] deals with sedge, umbrella. Description: Test B flooded paddy test. The format is in vivo, Cyperus difformis. The note with it: Cyperus difformis, 312 h; 250 g ai/ha, Flood, 13 days, 0 to 100 scale (0 no effect, 100 complete control); read-out: Plant response rating, Sedge, Umbrella. An outline of the steps:
as §2

Where [14] appears, read: visual injury after 10 days, 0 to 100 scale, 0 is no effect, 100 is complete control.
[15] abbreviates: 0 to 100 scale (0 no effect, 100 complete control), 10 days.

For the compound `C[C@H]1CN(C(=S)c2cccc(-n3cncn3)c2)c2cccc(Cl)c2O1` [Compound 139, [(2S)-8-Chloro-2,3-dihydro-2-methyl-4H-1,4-benzoxazin-4-yl][3-(1H-1,2,4-triazol-1-yl)phenyl]methanethione], the pest or weed control at 125 g/ha in test [1] (0 to 100 scale) came out at 90%; in test [2] (0 to 100 scale), 20%; in test [3] (0 to 100 scale), 40%; in test [4] (0 to 100 scale), 50%; in [6] it was 0%; in [7], 40%. For the same compound, the pest or weed control at 125 g/ha in test [8] was determined as 60%; in test [10] it was 80%; in test [11], 0%. Also, the pest or weed control at 500 g/ha was 100% in test [1] (setting [14]); 90% in test [2] (setting [14]); 100% in test [3] (setting [14]); 80% in test [4] (setting [14]); 60% in test [6]; 80% in test [7]. The pest or weed control at 500 g/ha in [8] is 100%; in [10], 90%; in test [11] it was 0%. Further, the values for the plant injury at 125 g/ha in test [5] and in [9] were 40% and 90%, respectively. Also, the Corn plant response rating (crop injury, 0 = no effect, 100 = complete kill) at 500 g/ha in [5] came out at 60%. For the same compound, the plant injury at 500 g/ha in test [9] was 100%. In addition, the results for the pest or weed control at 250 g/ha in [12] and in [13] were 15% and 75%, respectively.
Regarding `Cc1cccc2c1O[C@@H](C)CN2C(=O)c1cccc(-n2cnc(C3COC3)n2)c1` [Compound 109, [(2S)-2,3-Dihydro-2,8-dimethyl-4H-1,4-benzoxazin-4-yl][3-[3-(3-oxetanyl)-1H-1,2,4-triazol-1-yl]phenyl]methanone], the pest or weed control at 125 g/ha came to 100% in test [1] (setting [14]); 50% in test [2] (setting [14]); 90% in test [3] (setting [14]); 80% in test [4] (setting [14]); 80% in test [6]; 60% in [7]. The pest or weed control at 125 g/ha turned out to be 50% in test [8], 70% in test [10] and 10% in [11]. Moreover, the pest or weed control at 500 g/ha came out at 100% in test [1] (setting [15]); 90% in test [2] (setting [15]); 100% in test [3] (setting [15]); 100% in [4] (setting [15]); 80% in [6]; 60% in test [7]. Further, the pest or weed control at 500 g/ha is 100% in test [8], 100% in [10] and 30% in [11]. The plant injury at 125 g/ha in test [5] turned out to be 60%; in [9], 100%. The Corn plant response rating (crop injury, 0 = no effect, 100 = complete kill) at 500 g/ha in [5] amounted to 90%. Moreover, the plant injury at 500 g/ha in test [9] is 100%. For the same compound, the pest or weed control at 250 g/ha in [12] was 40%; in test [13], 98%.
